Source: US8557819B2 (priority 2005, dated 2013)
Structures can show the parent of a compound that is named as a salt.

System: not given
Assay: not given

Compound | melting point [°C]
c1c[nH]c(-c2ccc(C34CCCN(CC3)C4)nn2)c1 (stereo not drawn) | 207 to 209
c1c[nH]c(-c2ccc(C34CCCN(CC3)C4)nn2)n1 (stereo not drawn) (as salt: HBr) | 290 to 292
c1n[nH]cc1-c1ccc(C23CCCN(CC2)C3)nn1 (stereo not drawn) (as salt: HBr) [20] | 221 to 223
c1n[nH]cc1-c1ccc(C23CCCN(CC2)C3)nn1 (stereo not drawn) (as salt: HBr) [22] | 295 to 297
c1cc(-c2ccc(C34CCCN(CC3)C4)nn2)co1 (stereo not drawn) (as salt: HCl) | 226 to 228
c1nc(-c2ccc(C34CCCN(CC3)C4)nn2)c[nH]1 (stereo not drawn) (as salt: HCl) [18] | 271 to 273
c1cncc(-c2ccc(C34CCCN(CC3)C4)nn2)c1 (racemic) | 131 to 133
c1cc(-c2ccc(C34CCCN(CC3)C4)nn2)co1 (racemic) | 140 to 141
Clc1ccc(C23CCCN(CC2)C3)nn1 (racemic) (as salt: HCl) | 234 to 235
COc1ccc(-c2ccc(C34CCCN(CC3)C4)nn2)cc1 (racemic) (as salt: HCl) [Compound 7] | 229 to 231
c1coc(-c2ccc(C34CCCN(CC3)C4)nn2)c1 (racemic) (as salt: HCl) [Compound 8] | 274 to 275
Cc1csc(-c2ccc(C34CCCN(CC3)C4)nn2)c1 (racemic) [Compound 3] | 139 to 140

Molecular target: nicotinic receptors containing the α7 subunit (Rattus norvegicus, UniProt Q05941)
Assay: biochemical
Type: binding

nicotinic receptors containing the α7 subunit, sequence (Q05941 23-502): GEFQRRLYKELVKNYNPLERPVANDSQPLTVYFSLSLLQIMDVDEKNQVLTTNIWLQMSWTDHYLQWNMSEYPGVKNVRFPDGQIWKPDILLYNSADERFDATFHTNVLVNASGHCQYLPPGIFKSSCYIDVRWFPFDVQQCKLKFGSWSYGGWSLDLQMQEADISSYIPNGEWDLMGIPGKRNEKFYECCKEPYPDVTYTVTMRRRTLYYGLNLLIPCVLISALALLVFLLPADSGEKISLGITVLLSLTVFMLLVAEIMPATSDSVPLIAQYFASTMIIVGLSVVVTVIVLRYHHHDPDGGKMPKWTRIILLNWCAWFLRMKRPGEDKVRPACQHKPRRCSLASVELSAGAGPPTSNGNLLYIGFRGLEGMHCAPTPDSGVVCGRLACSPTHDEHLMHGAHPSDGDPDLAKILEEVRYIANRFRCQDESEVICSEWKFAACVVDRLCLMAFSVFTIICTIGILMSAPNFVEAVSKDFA

Compound | IC50 [nM]
Cc1csc(-c2ccc(C34CCCN(CC3)C4)nn2)c1 (racemic) [Compound 3] | 428
COc1ccc(-c2ccc(C34CCCN(CC3)C4)nn2)cc1 (racemic) [Compound 7] | 164
c1coc(-c2ccc(C34CCCN(CC3)C4)nn2)c1 (racemic) [Compound 8] | 442
